{
  "source": "patent US8058414B2",
  "about": "“Unnatural polymerase substrates that can sustain enzymatic synthesis of double stranded nucleic acids from a nucleic acid template and methods of use” (Life Technologies Corporation, priority 2008, dated 2011)",
  "key": {"Klenow enzyme": {"target": "T1, Klenow enzyme (Escherichia coli, UniProt P00582)", "T1 construct": "Klenow enzyme at 37° C. for 1 minute", "T1 sequence (P00582 324-928)": "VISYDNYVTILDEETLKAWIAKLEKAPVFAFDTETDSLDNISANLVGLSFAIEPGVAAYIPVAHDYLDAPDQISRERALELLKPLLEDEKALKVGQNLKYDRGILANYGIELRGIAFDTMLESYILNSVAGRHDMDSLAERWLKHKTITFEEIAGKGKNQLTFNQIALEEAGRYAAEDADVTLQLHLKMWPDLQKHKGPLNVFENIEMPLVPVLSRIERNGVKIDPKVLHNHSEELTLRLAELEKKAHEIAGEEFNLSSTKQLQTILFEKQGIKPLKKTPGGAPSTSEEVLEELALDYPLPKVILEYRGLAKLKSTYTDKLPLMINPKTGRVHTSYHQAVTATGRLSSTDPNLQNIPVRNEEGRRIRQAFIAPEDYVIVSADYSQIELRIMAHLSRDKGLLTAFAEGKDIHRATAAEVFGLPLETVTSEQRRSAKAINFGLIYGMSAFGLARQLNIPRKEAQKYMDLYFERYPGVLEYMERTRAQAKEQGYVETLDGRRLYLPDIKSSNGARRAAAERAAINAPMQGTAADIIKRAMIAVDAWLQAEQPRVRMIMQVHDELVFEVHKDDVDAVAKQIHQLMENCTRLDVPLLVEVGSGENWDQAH", "assay": "Polymerase extension of FAM labeled primer over (AAG)14 template", "type": "biochemical", "conditions": "for extension over (AAG)14 template (electropherogram): FIG. 12, with dCTP, FAM labeled primer", "procedure": "In order to determine if a polymerase would continue to extend an unnatural DNA (i.e., a DNA including moieties not present in natural DNA) comprising residues having amino groups, an experiment was designed using aminopropargyl-dUTP (deoxyuridine triphosphate) and dCTP (deoxycytidine triphosphate) which yields extended DNA having residues with terminal amino functional groups on the incorporated dUTP moieties. The dUTP used is represented by the formula: […]\nThe experiment was conducted using an FAM (i.e., 6-carboxyfluorescein) labeled primer over an (AAG)14 [SEQ ID NO: 1] template.\nThese substrates were tested against the same template/primer system used in the experiments shown in FIGS. 12A and 12B {i.e., Klenow enzyme at 37° C. for 1 minute over an (AAG)14 [SEQ ID NO: 1] template}. The concentration of the nucleotides for this experiment was 5 μM. The results of this experiment are summarized in the electropherogram of FIG. 13C.\nSimilar experiments were conducted over the same template for natural dCTP/dTTP, with results shown in the electropherogram of FIG. 13A, and the methylpropynyl analogs of these substrates, with results shown in the electropherogram of FIG. 13B."}, "[1]": {"test_system": "Therminator (NEB) DNA polymerases", "assay": "Evaluation of termination and mis-incorporation properties of γ-substituted-dNTP's (capillary electrophoresis of primer extension)", "type": "biochemical", "conditions": "for termination properties (overall) / extension to the first correct base / consumption of the primer / further incorporation over the 2nd correct base (template 2) / activity / incorporation / mis-incorporation: 1 μM substrate; for extension to the first correct base / consumption of the primer: after 10 minutes; for further incorporation over the 2nd correct base (template 2): after 60 minutes", "procedure": "FIGS. 21A-21D are electropherograms showing the termination properties of γ-phosphate substituted dUTP analogs having an O-propargyl-S-substituent at the 5 position over a p(dA) template.\n[drawing 12] wherein R1 is a methyl group. The substrate concentration was 1 μM. FIG. 21A is an electropherogram for the primer. FIGS. 21B-D are the electropherograms after 10, 30 and 60 minutes of extension, respectively.\nFIGS. 22A-22D are electropherograms showing the mis-incorporation properties of γ-phosphate substituted dUTP analogs having an O-propargyl-S-substituent at the 5 position and a benzyl group as a γ-phosphate substituent. The nucleotide analog used in these experiments had the same general structure as set forth above in the description of FIGS. 21A-21D. For these experiments, all reactions were conducted for 10 minutes at a substrate concentration of 1 μM using Mg^2+. Two templates were used:\nGeneral procedure for evaluation of termination properties of γ-substituted-dNTP's comprising silver ion cleavable linker arms attached to the base. All evaluations performed with Therminator (NEB) DNA polymerases were 3′ to 5′ exonuclease negative. Three types of templates were used in testing each substrate, where N denotes the complement of the base that is being evaluated for its termination properties, and the underlined portion of the target is the priming site: 1) a single correct base immediately after the priming site followed by incorrect bases; 2) two correct bases immediately after the priming site followed by incorrect bases; 3) each incorrect base followed by the correct base and then additional incorrect bases. The first two primers were used to show incorporation and termination, while the third set of templates was used to study mis-incorporation. All substrates were evaluated by capillary electrophoresis with analysis for extension of 0, 1, or 2 bases from a fluorescein labeled −21 M13 primer (the binding site of the primer corresponds to the underlined portion of the templates shown below).\nTemplates were pre-hybridized to the primer at 2 μM final concentration. The final assay concentration of the primer/template hybrid was 40 nM.\nUnless otherwise noted, substrates were tested at 1 μM final concentration with 1 μL of the appropriate commercial enzyme at the concentration supplied by the manufacturer (usually 2-5 U/μL in 2× buffer composed of 40 mM Tris, pH 7.6, 10 mM DTT, 10 mM […] and 30 mM isocitrate). Each buffer was used at 1× in the final assay.\nGenerally, assays were set up as 10 μL final volume and run at 65° C. The termination properties were evaluated at 10 minutes, 30 minutes and 1 hr. At the end of each reaction, […] of the reaction mix was pipetted into 25 μL of 0.5 M EDTA, to quench the reaction, in a streptavidin coated microtiter plate well (Applied Biosystems Part No. 4357279) to capture the biotin labeled template for purification of the primer. Plates were shaken at room temperature for 10 minutes. Excess fluid was discarded and the microtiter wells were washed 3× with 4×SSC containing 0.1% Tween 20. Plates were centrifuged briefly upside down to remove excess buffer. To remove the primer from the template, 20 μL of HiDi Formamide (Applied Biosystems Part No. 4311320) was added with size ladder (LIZ® dye-labeled SNPlex™ internal size standard) to each well. The plate was incubated at 50° C. with shaking for 10 minutes. […] of the HiDi Formamide solution was transferred to a 96 well plate (Applied Biosystems Part No. N8010560) and covered with a 96 well plate septa (Applied Biosystems Part No. 4315933). Samples were separated electrophoretically on an AB 3100XL with a 36 cm capillary with POP6™ polymer separating media. The peaks were analyzed with either GeneScan® Software or Peak Scanner™ software, both from Applied Biosystems."}, "[2]": {"conditions": "5 μM substrate, after 30 minutes"}},
  "data": [
    {"molecule": "CC#CCNC(=O)CO", "values": [
      {"measurement": "synthesis of the extension product over (AAG)14 template", "setting": "Klenow enzyme; FIG. 13, Klenow enzyme at 37° C. for 1 minute, nucleotides 5 μM", "value": "excellent synthesis of the extension product"}
    ]},
    {"molecule": "NCC#Cc1cn([C@H]2C[C@H](O)[C@@H](COP(=O)(O)OP(=O)(O)OP(=O)(O)O)O2)c(=O)[nH]c1=O", "note": "[aminopropargyl-dUTP]", "values": [
      {"measurement": "extension over (AAG)14 template (electropherogram)", "setting": "Klenow enzyme; 42 base target template", "value": "poor extension"},
      {"measurement": "extent of extension over the template", "setting": "Klenow enzyme; FIG. 12B, 42 base target template", "value": "≤ 14", "unit": "bases"}
    ]},
    {"molecule": "Nc1ncnc2c1ncn2[C@H]1C[C@H](O)[C@@H](COP(=O)(O)OP(=O)(O)OP(=O)(O)OCc2ccccc2)O1", "note": "[compound 27, γ-benzyl-dATP]", "values": [
      {"measurement": "termination properties (overall)", "setting": "[1]", "value": "excellent termination properties"},
      {"measurement": "extension to the first correct base / consumption of the primer", "setting": "[1]", "value": "almost complete consumption of the primer"},
      {"measurement": "further incorporation over the 2nd correct base (template 2)", "setting": "[1]", "value": "no further incorporation is observed"}
    ]},
    {"molecule": "C[n+]1ccn(CCOP(=O)(O)OP(=O)(O)OP(=O)(O)OCC2OC(n3ccc(N)nc3=O)CC2O)c1", "note": "(stereo not drawn) [compound 28, γ-(2-(N-(3-methylimidazolium))-ethyl)-dCTP]", "values": [
      {"measurement": "activity", "setting": "[1]", "value": "quite low"},
      {"measurement": "incorporation", "setting": "[1]; after 1 hr.", "value": "significant incorporation"},
      {"measurement": "mis-incorporation", "setting": "[1]; after 1 hr.", "value": "no mis-incorporation is observed"},
      {"measurement": "consumption of the primer", "setting": "[1]; [2]", "value": "completely consumed"},
      {"measurement": "extension past the first base on the GG template", "setting": "[1]; [2]", "value": "only a trace of extension"}
    ]},
    {"molecule": "C[n+]1ccn(CCOP(=O)(O)OP(=O)(O)OP(=O)(O)OC[C@H]2O[C@@H](n3cnc4c(=O)[nH]c(N)nc43)C[C@@H]2O)c1", "note": "[compound 29, γ-(2-(N-(3-methylimidazolium))-ethyl)-dGTP]", "values": [
      {"measurement": "activity", "setting": "[1]", "value": "quite low"},
      {"measurement": "incorporation", "setting": "[1]; after 1 hr.", "value": "significant incorporation"},
      {"measurement": "mis-incorporation", "setting": "[1]; after 1 hr.", "value": "no mis-incorporation is observed"},
      {"measurement": "consumption of the primer", "setting": "[1]; 4 μM substrate, after 1 hr.", "value": "completely consumed"},
      {"measurement": "extension past the first base on the CC template", "setting": "[1]; 4 μM substrate, after 1 hr.", "value": "only a trace of extension"}
    ]},
    {"molecule": "methylpropynyl dUTP", "values": [
      {"measurement": "extension over (AAG)14 template (electropherogram)", "setting": "Klenow enzyme; 42 base target template", "value": "extension to a single product"}
    ]},
    {"molecule": "γ-methyl-dUTP [compound 26]", "values": [
      {"measurement": "termination properties (overall)", "setting": "[1]", "value": "excellent termination properties"},
      {"measurement": "extension to the first correct base / consumption of the primer", "setting": "[1]", "value": "almost complete consumption of the primer"},
      {"measurement": "extension to the first correct base / consumption of the primer", "setting": "[1]; listed as drawing 12", "value": "almost complete"},
      {"measurement": "further incorporation over the 2nd correct base (template 2)", "setting": "[1]", "value": "No further incorporation is observed"},
      {"measurement": "further incorporation over the 2nd correct base (template 2)", "setting": "[1]; listed as drawing 12", "value": "no observable incorporation"},
      {"measurement": "incorporation into the AA template", "setting": "[1]; FIG. 22B, 10 minutes, 1 μM, Mg2+", "value": "is incorporated into the AA template"},
      {"measurement": "mis-incorporation over the dG or dT in the GA and TA templates", "setting": "[1]; FIG. 22C-D, 10 minutes, 1 μM, Mg2+", "value": "is not mis-incorporated"}
    ]}
  ]
}
